Assay results from patent publication US9320698B2, “Peptide tyrosinase inhibitors and uses thereof” (Escape Therapeutics, Inc., priority 2011, dated 2016).
No end group written: not given here.

Experiments:
[1] = molecular target: tyrosinase; conditions: read-out: published IC50; published value; cited from earlier work
[2] = molecular target: T1, mushroom tyrosinase (Agaricus bisporus, UniProt C7FF04); test: Kinetic studies of mushroom tyrosinase (Lineweaver-Burk, nonlinear regression); type: biochemical
Protocol: The concentration of mushroom tyrosinase [E] was 24 units/ml. […] [I] ranged from 0 to 0.3 mM. Data were obtained as mean values of 1/V, inverse of the increase of absorbance at wavelength of 475 nm per minute (ΔA475/min) for 5 independent trials. Michaelis Menten constant (Km) and the dissociation constant Ki were derived using nonlinear regression analysis with GraphPad Prism 5.
Experiments were conducted using the same protocol as above except for changes in concentration of [E], [S] and [I]. [E] was 24 units/ml, [S] was 0.05, 0.1, 0.25, 0.5, 0.75 and 1 mM, and [I] was 0, 0.03, 0.1, 0.3 and 1 mM. Lineweaver-Burk reciprocal plots were generated to determine the mode of inhibition (Burk, D., Lineweaver, H., and Horner, C. K. (1934) J Bacteriol 27, 325-340), and Michaelis Menten plots were used to determine Vmax and Km. Nonlinear regression using GraphPad Prism 5 software was used to determine Ki. Prism calculates the Ki using the equation of Cheng, Y., and Prusoff, W. H. (1973) Biochem Pharmacol 22, 3099-3108.

[3] = tested on: primary human melanocytes; conditions: 6 d
Protocol: (§1) Cells were seeded at equal numbers and incubated with varying concentrations of test samples for 1 day, 3 days and 6 days, harvested, stained with trypan blue, and then counted. The assay was carried out in triplicate, and the % cell death was calculated according to the formula shown in Examples.
(§2) Cellular toxicity was measured using a trypan blue dye exclusion assay. Cells were cultured in 6-well plates at a density of 4×10^5 cells/well for 1, 3, or 6 d in 2 ml of medium. […] The plates were incubated at 37° C. in a humidified 5% CO2 chamber, harvested at the appropriate time, treated with trypan blue, and then counted using a hemacytometer. Cytotoxicity was measured according to the following formula: [1−(# of cells in control−# of live cells in test sample)/# of cells in control]×100%.
(§3) The cytotoxic effect of P16-18 on primary human melanocytes, keratinocytes, and fibroblasts were then assessed at 1, 3, and 6 d using trypan blue exclusion.

[4] = tested on: primary human keratinocytes; conditions: 6 d
Protocol: as §1, §2, §3

[5] = tested on: primary human fibroblasts; conditions: 6 d, 30 μM
Protocol: as §1, §2, §3

[6] = molecular target: T2, human tyrosinase (Homo sapiens, UniProt P14679); test: Inhibition of freshly extracted human tyrosinase, L-dopa as substrate; type: biochemical; conditions: at 200 μM
T2 construct: cells were harvested and lysed using 1% Triton X-100 in 0.067 M potassium phosphate buffer (pH 6.8); endogenous in cells; host or cells: primary human melanocytes (gift from Dr. Todd Ridky, Stanford), clarified Triton X-100 lysate
T2 sequence (P14679 19-529): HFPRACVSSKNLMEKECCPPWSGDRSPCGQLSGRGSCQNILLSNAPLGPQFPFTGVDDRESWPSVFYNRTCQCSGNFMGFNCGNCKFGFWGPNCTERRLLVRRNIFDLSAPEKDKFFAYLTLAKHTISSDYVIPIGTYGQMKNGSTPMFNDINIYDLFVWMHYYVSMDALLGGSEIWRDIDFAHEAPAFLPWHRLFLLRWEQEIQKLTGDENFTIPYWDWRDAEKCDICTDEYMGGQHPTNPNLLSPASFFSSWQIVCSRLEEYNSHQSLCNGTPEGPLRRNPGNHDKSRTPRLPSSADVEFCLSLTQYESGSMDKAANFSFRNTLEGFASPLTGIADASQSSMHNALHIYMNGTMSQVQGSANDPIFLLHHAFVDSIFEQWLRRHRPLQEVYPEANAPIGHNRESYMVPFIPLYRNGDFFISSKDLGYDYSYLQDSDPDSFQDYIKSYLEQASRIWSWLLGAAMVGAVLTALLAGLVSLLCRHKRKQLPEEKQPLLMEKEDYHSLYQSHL

[7] = tested on: MNTI cells; test: Melanin content measurement in MNTI cells; type: cell-based, human; conditions: 50 μM HQ, 3 days
[8] = tested on: primary human melanocytes; conditions: 72 h
Protocol: (§4) The three cell types were incubated with varying concentrations of the test compounds for 72 h at 37° C. and then processed using the MTT assay. Data are presented as % toxicity relative to the control as a function of concentration, and plotted as means±S.E of 5 independent trials. **p<0.01.
(§5) Keratinocytes, fibroblast, and melanocyte proliferation rates were determined using a TACS® MTT Cell Proliferation Kit (R&D systems, Minneapolis, Minn.). Cells were plated at 2.5×10^4/well in 96-well plates in a humidified atmosphere with 5% CO2 at 37° C. Twenty-four h after plating, test samples were added and cultures were incubated for an additional 72 h. The remainder of the procedure was performed following the manufacturer's protocol.
(§6) Proliferation rates were then assessed at 3 d using an MTT assay.

[9] = tested on: primary human keratinocytes; conditions: 72 h
Protocol: as §4, §5, §6

[10] = tested on: primary human fibroblasts; conditions: 72 h
Protocol: as §4, §5, §6

[11] = tested on: melanocytes, keratinocytes and fibroblasts; conditions: for oligopeptides a minimum ratio (3 mM / IC50)
Source text: An ideal therapeutic agent should have a ratio that is higher than two to be considered safe for long-term use in humans.

[12] = molecular target: T1, mushroom tyrosinase; test: Enzymatic assay of mushroom tyrosinase, L-tyrosine as substrate; type: biochemical
Protocol: The assay mixture was incubated at 37° C.
In order to assess this potential, their inhibitory activity against mushroom tyrosinase was tested.

T1 sequence (C7FF04 1-392): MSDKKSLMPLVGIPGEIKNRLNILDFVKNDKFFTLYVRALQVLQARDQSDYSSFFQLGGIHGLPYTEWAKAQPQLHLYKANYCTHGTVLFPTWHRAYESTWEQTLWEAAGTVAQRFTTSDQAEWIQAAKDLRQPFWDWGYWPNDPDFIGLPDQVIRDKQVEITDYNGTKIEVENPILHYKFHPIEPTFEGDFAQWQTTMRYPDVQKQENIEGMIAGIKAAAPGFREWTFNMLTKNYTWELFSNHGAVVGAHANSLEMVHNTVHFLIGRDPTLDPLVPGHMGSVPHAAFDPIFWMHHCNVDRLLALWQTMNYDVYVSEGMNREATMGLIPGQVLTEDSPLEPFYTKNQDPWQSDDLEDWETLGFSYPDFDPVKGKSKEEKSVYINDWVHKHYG
T1 sequence (G1K3P4 entry or part of it, further chain): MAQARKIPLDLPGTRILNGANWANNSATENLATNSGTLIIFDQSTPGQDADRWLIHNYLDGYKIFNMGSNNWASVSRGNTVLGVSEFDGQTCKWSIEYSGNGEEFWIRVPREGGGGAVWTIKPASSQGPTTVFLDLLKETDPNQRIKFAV

## Oc1ccc(O)cc1 [HQ, hydroquinone]
[1]
  IC50: ~700 µM
[2]; Table 4, from Lineweaver Burk plots
  Nature of inhibition: competitive
[3]; 20 μM
  melanocyte cell death: 50±3%
[3]; 30 μM
  cell death: 70±3%
[3]; 100 μM
  cytotoxicity / cell death: 100%
[4]; 300 μM
  cell death: 42±3%
[4]; 3 mM
  rate of cell death: 77±4%
[5]
  cell death: 60±2%
[6]
  human tyrosinase activity reduced by: 5%
[7]
  melanin content reduced by: 50±4%
[8]; 100 μM
  reduction in proliferation rate: 50±3%
[8]; 3 mM
  proliferation inhibited by: over 90%
[9]; 100 μM
  reduction in proliferation rate: 30±3%
[9]; 3 mM
  proliferation inhibited by: up to 63±3%
[10]; 100 μM
  reduction in proliferation rate: 45±2%
[10]; 3 mM
  proliferation inhibited by: over 90%
[11]
  ratio of 50% cytotoxic concentration to IC50: significantly less than one

## RRFVCC (chains of the parent or of the whole protein) [Peptide P15]
[2]; Table 4, mushroom tyrosinase
  Ki: 167 ± 11 µM
[12]; Table 4, mushroom tyrosinase
  IC50: 1.12 ± 0.05 mM
[12]; mushroom tyrosinase
  IC50: 1.1 mM

## RRFVCC [Peptide P15]
[12]; mushroom tyrosinase
  tyrosinase inhibition (in words): weak inhibition

## RRFVLL [Peptide P14]
[12]; mushroom tyrosinase
  IC50: 1.8 mM

## RRRYWYYR [Peptide P17]
[6]
  human tyrosinase activity reduced by: 12%

## RRWWRRYY [Peptide P16]
[6]
  human tyrosinase activity reduced by: 30%

## RRYWYWRR [Peptide P18]
[6]
  human tyrosinase activity reduced by: 25%
